Assay [1] deals with Micrococcus luteus. Kind of assay: Antibacterial activity against Micrococcus luteus. The assay is classed as functional.
In assay [2] the test system is KB. Kind of assay: Cytotoxicity against human KB cells. The assay is classed as functional, cell-based.
Assay [3] has as its system L1210. Kind of assay: Cytotoxicity against mouse L1210 cells. The format is functional, cell-based.

In brackets after ≈: the same amount, converted by molar mass. Bounds are passed on as bounds.

`COc1ccc(C[C@H](N)C(=O)NCCc2cc(Br)c(OCCCN(C)C)c(Br)c2)cc1Br` [SUBEREDAMINE A] came in with an MIC in assay [1] of 12.6 µg/mL (≈ 19.8 µM). Besides, the IC50 stood at 9 µg/mL (≈ 14.1 µM) in assay [2] and 8 µg/mL (≈ 12.6 µM) in assay [3].
With `CN[C@@H](Cc1ccc(OC)c(Br)c1)C(=O)NCCc1cc(Br)c(OCCCN(C)C)c(Br)c1` [SUBEREDAMINE B], the MIC in assay [1] was found to be 12.6 µg/mL (≈ 19.4 µM). Besides, the half-inhibitory concentration (IC50) in assay [2] is above 10 µg/mL; in assay [3], 8.6 µg/mL (≈ 13.2 µM).

Source of the values: ChEMBL document CHEMBL1155736, “Suberedamines A and B, new bromotyrosine alkaloids from a sponge Suberea species” (J Nat Prod, 2001).
